# Measurements: patent US5883091A, “1,3,4-oxadiazine derivatives having a pesticide effect” (priority 1994, dated 1999)
# Test system: two-spotted spider mite (Tetranychus urticae)
# Assay: Tetranychus-Test (OP resistant/spray treatment)
# Type: in vivo
# Conditions: Tetranychus urticae, 120 h; after 5 days; active compound concentration 0.001%; OP resistant; spray treatment of infested bean plants; 100% = all spider mites destroyed, 0% = none destroyed; read-out: destruction of spider mites (action in %)
# Procedure: Tetranychus-Test (OP resistant/spray treatment)
# Solvent: 3 parts by weight of dimethylformamide
# Emulsifier: 1 part by weight of alkylaryl polyglycol ether
# To prepare a suitable preparation of active compound, 1 part by weight of active compound is mixed with the stated amount of solvent and the stated amount of emulsifier, and the concentrate is diluted with water to the desired concentrations.
# Bean plants (Phaseolus vulgaris) which are severely infested with all stages of the two-spotted spider mite (Teiranychus urticae) are sprayed with a preparation of active compound of the desired concentration.
# After the desired time, the action is determined in %. 100% means that all spider mites have been destroyed; 0% means that no spider mites have been destroyed.
row,Compound,mortality at 0.001 % [%]
1,"Fc1cccc(F)c1C1=NN(c2ccc(-c3ccc(OC(F)(F)F)cc3)cc2)CCO1 [Example 3, 4-[4-(4-trifluoromethoxyphenyl)phenyl]-2-(2,6-difluorophenyl)-4H-5,6-dihydro-1,3,4-oxadiazine]",95
2,"CC(C)(C)c1ccc(CN2CCOC(c3c(F)cccc3F)=N2)cc1 [Example 4, 2-(2,6-difluorophenyl)-4-(4-tert-butylbenzyl)-4H-5,6-dihydro-1,3,4-oxadiazine]",98

# Same assay, conditions: after 5 days; active compound concentration 0.001%; OP resistant; spray treatment of infested bean plants; 100% = all spider mites destroyed, 0% = none destroyed
row,Compound,destruction of spider mites (action in %)
1,"FCCN1CCOC(c2ccc(Br)cc2)=N1 [A, 2-(4-Bromophenyl)-4-(2-fluoroeth-1-yl)-4H-5,6-dihydro-1,3,4-oxadiazine, reference compound]",no action

# Test system: not listed separately
# Assay: log p (pH 2), physical constants
# Type: physicochemical
# Conditions: not given
row,Compound,logD
1,Fc1cccc(F)c1C1=NN(Cc2cc(Cl)c(OCc3ccc(Cl)cc3)c(Cl)c2)CCO1 [Example 21],5.67
2,Clc1ccc(C2=NN(Cc3ccc(Oc4ccccc4)cc3)CCO2)c(Cl)c1 [Example 18],5.61
3,Brc1ccc(CN2CCOC(c3cccs3)=N2)cc1 [Example 20],4.26
4,Clc1ccc(COc2c(Cl)cc(CN3CCOC(c4cccs4)=N3)cc2Cl)cc1 [Example 24],5.95
5,FC(F)(F)c1ccc(Oc2ccc(CN3CCOC(c4cc(Cl)ccc4Cl)=N3)cc2)c(Cl)c1 [Example 19],6.35
6,FC(F)(F)Oc1ccc(-c2ccc(CN3CCOC(c4cccs4)=N3)cc2)cc1 [Example 23],5.41
7,Fc1cccc(F)c1C1=NN(Cc2ccc(Br)cc2)CCO1 [Example 22],4.03

# The next lines start with the values.
row,logD,Compound
1,5.15,Fc1cccc(F)c1C1=NN(Cc2ccc(-c3ccc(OC(F)(F)F)cc3)cc2)CCO1 [Example 29]
2,3.38,Fc1cccc(F)c1C1=NN(Cc2ccccc2)CCO1 [Example 38]
3,4.8,Fc1cccc(C2=NN(Cc3ccc(Br)cc3)CCO2)c1 [Example 35]
4,5.87,Fc1cccc(C2=NN(Cc3ccc(-c4ccc(OC(F)(F)F)cc4)cc3)CCO2)c1 [Example 36]
5,6.13,Fc1ccc(CN2CCOC(c3ccc(Cl)c(Cl)c3)=N2)cc1Oc1ccccc1 [Example 27]
6,7.36,FC(F)(F)Oc1ccc(-c2ccc(CN3CCOC(c4cc(Cl)cc(Cl)c4)=N3)cc2)cc1 [Example 37]
7,4.73,Fc1ccc(C2=NN(Cc3ccc(Br)cc3)CCO2)cc1 [Example 32]
8,6.43,FC(F)(F)c1cccc(C2=NN(Cc3ccc(Oc4ccc(C(F)(F)F)cc4Cl)cc3)CCO2)c1 [Example 31]
9,6.47,Clc1cc(Cl)cc(C2=NN(Cc3ccc(Br)cc3)CCO2)c1 [Example 34]
10,5.41,Fc1ccc(CN2CCOC(c3cc(Cl)ccc3Cl)=N2)cc1Oc1ccccc1 [Example 33]
11,4.49,Fc1cccc(F)c1C1=NN(Cc2ccc(-c3ccccc3)cc2)CCO1 [Example 30]
12,6.44,FC(F)(F)c1ccc(C2=NN(Cc3ccc(Oc4ccc(C(F)(F)F)cc4Cl)cc3)CCO2)cc1 [Example 26]
13,5.57,Clc1ccc(Cl)c(C2=NN(Cc3cccc(Oc4ccccc4)c3)CCO2)c1 [Example 25]
